{"source": "patent US9738591B2", "about": "“Antimicrobial compounds” (priority 2009, dated 2017)", "key": {"[1]": {"system": "Vibrio cholerae (non-toxigenic) M3695", "test": "Disk diffusion", "type": "cell-based", "conditions": "10 mg/ml, 20 μl, (other strain?)"}, "E. coli NCTC 10418": {"system": "E. coli NCTC 10418", "test": "Broth microdilution MIC and MBC, expanded testing range", "type": "cell-based", "conditions": "Escherichia coli, NCTC10418; MHB, growth-method inoculum, range 1024 to 0.5 μg/ml", "procedure": "(§1) The method used was based on CLSI protocols for broth microdilution testing of these species. As recommended by CLSI, inocula were prepared by direct colony suspension, and the media used were cation-adjusted Mueller Hinton broth (CA-MHB) for Staphylococcus spp. and CA-MHB containing 5% lysed horse blood (CA-MHB+LHB) for Streptococcus spp. Briefly, 24 h blood agar plate (BA) cultures of Staphylococcus aureus strains NCTC 6571, ATCC 29213, ATCC 33592 (MRSA) and NCTC 10442 (MRSA), Staphylococcus epidermidis ATCC 29971, Staphylococcus xylosus ATCC 29971, Streptococcus pneumoniae strains ATCC 49619 and ATCC 6305, and Streptococcus pyogenes strains NCTC 8191 and NCTC 8302 were used to prepare 0.5 McFarland suspensions in saline. Two 640 μg/ml working stocks of TSB007 were prepared from a fresh master stock, one in CA-MHB for testing against the Staphylococcus spp. and the other in CA-MHB+LHB for testing against Streptococcus spp. The working stocks were further diluted 1/10 in these broths for adding to microtitre trays to test MICs of 32, 16, 8, 4, 2, 1, 0.5, 0.25, 0.125 and 0.06 μg/ml.\n(§2) The wells of two 96-well microtitre trays (one for Staphylococcus spp. and one for Streptococcus spp.) were filled with 100 μl of the appropriate broth, except for the first column. The last column, a sterility control containing no TSB007 or inoculum, was filled with an additional 100 μl broth. Then 100 μl of the 64 μg/ml TSB007 solution was added to the first two columns, the contents of column 2 was mixed, then 100 μl of this was used in two-fold serial dilutions along the rest of the tray except the last two columns. The final 100 μl was discarded. […] Finally, to the first 11 wells of one row per strain, 100 μl of a 10^−2 dilution (in the appropriate broth) of the 0.5 McFarland suspension was added. The microtitre trays were then incubated at 35° C. for 24 h before the MICs were read visually. Wells were further subcultured (10 μl drop onto BA then incubated at 35° C. for 24 h) and colonies subsequently counted to determine minimum bactericidal concentrations (MBCs). The concentration of the initial inoculum was confirmed on BA by counting colonies from 2×10 μl spots of 10^−5 dilutions of the 0.5 McFarland suspensions. Testing was performed on two separate occasions.\n(§3) The method described above, with some modifications, was used to determine the MIC and MBC for S. aureus NCTC 6571 and E. coli NCTC 10418. Concentrations of the compound were previously too low to determine the MBC of this S. aureus strain. Modifications were the use of Mueller-Hinton broth (MHB) instead of CA-MHB, the preparation of bacterial inoculum by the growth method instead of direct colony suspension, and the use of more concentrated working stocks and test concentrations of TSB007. […]"}, "S. aureus NCTC 6571": {"system": "S. aureus NCTC 6571", "test": "Broth microdilution MIC and MBC, expanded testing range", "type": "cell-based", "conditions": "Staphylococcus aureus, NCTC6571; MHB, growth-method inoculum, range 1024 to 0.5 μg/ml", "procedure": "as §1, §2, §3"}, "[2]": {"system": "Escherichia coli NCTC 10538", "test": "Disk diffusion", "conditions": "10 mg/ml, 20 μl; repeat; value printed with '?'"}, "[3]": {"system": "Enterococcus faecalis NCTC 775", "test": "Disk diffusion", "conditions": "10 mg/ml, 20 μl"}, "[4]": {"system": "Staphylococcus aureus (methicillin resistant) NCTC 10442", "test": "Disk diffusion", "conditions": "for zone of inhibition at 10000 µg/mL: Staphylococcus aureus"}, "[5]": {"system": "S. typhimurium TA98, TA100 and TA1535", "test": "Ames Test for mutagenic activity, no metabolic activation", "conditions": "for Number of colonies: duplicate plates"}, "[6]": {"system": "Staphylococcus aureus NCTC 6571/ATCC 9144", "test": "Disk diffusion", "conditions": "for zone of inhibition at 10000 µg/mL: Staphylococcus aureus"}, "[7]": {"system": "Listeria monocytogenes NCTC 7973", "test": "Disk diffusion", "conditions": "10 mg/ml, 20 μl"}, "[8]": {"system": "Moraxella catarrhalis ATCC 25238", "test": "Disk diffusion", "type": "cell-based", "conditions": "10 mg/ml, 20 μl, incubated in 5% CO2"}, "[9]": {"system": "S. aureus and S. epidermidis", "test": "MIC by broth microdilution", "type": "cell-based", "conditions": "CA-MHB, read-out: lowest MICs", "procedure": "as §1, with “The working stocks were further diluted 1/10 in these broths for adding to microtitre trays to test MICs of 32, 16, 8, 4, 2, 1, 0.5, 0.25, 0.125 and 0.06 μg/ml.” left out\nThe wells of two 96-well microtitre trays (one for Staphylococcus spp. and one for Streptococcus spp.) were filled with 100 μl of the appropriate broth, except for the first column. […] The microtitre trays were then incubated at 35° C. for 24 h before the MICs were read visually. Wells were further subcultured (10 μl drop onto BA then incubated at 35° C. for 24 h) and colonies subsequently counted to determine minimum bactericidal concentrations (MBCs). […]"}, "[10]": {"system": "Bacillus subtilis ATCC 6633", "test": "Disk diffusion", "conditions": "10 mg/ml, 20 μl"}, "[11]": {"system": "Staphylococcus epidermidis ATCC 12228", "test": "Disk diffusion", "conditions": "for zone of inhibition at 10000 µg/mL: Staphylococcus epidermidis"}, "[12]": {"system": "Proteus mirabilis NCTC 10975", "test": "Disk diffusion", "conditions": "10 mg/ml, 20 μl; repeat; value printed with '?'"}, "[13]": {"system": "Streptococcus pneumoniae ATCC 49619", "test": "Disk diffusion", "conditions": "10 mg/ml, 20 μl, Mueller Hinton + Blood & Incubated in 5% CO2"}}, "note": "Several values for one entry are separate records, joined by “and”; a condition that tells them apart may be missing. Identical values can stand only once. Like-named read-outs stand apart in the source and are kept apart here."}
{"compound": "O=C(O)c1ccc(/C=C/c2cc(/C=C/c3ccc(C(=O)O)cc3)cc(/C=C/c3ccc(C(=O)O)cc3)c2)cc1", "note": "[TSB007]", "values": [{"measurement": "Zone diameters, Repeat Results", "setting": "[1]", "result": 7, "unit": "trim"}, {"measurement": "MBC", "setting": "E. coli NCTC 10418", "result": "> 1020", "unit": "µg/mL"}, {"measurement": "MIC", "setting": "E. coli NCTC 10418", "result": 512, "unit": "µg/mL"}, {"measurement": "MBC", "setting": "S. aureus NCTC 6571", "result": "128 to 256", "unit": "µg/mL"}, {"measurement": "MIC", "setting": "S. aureus NCTC 6571", "result": 2, "unit": "µg/mL"}, {"measurement": "Zone diameters, Repeat Results", "setting": "[2]", "result": "7.5? trim"}, {"measurement": "Zone diameters, 24 h TSB007", "setting": "[3]; 24 h", "result": 10, "unit": "trim"}, {"measurement": "Zone diameters, 48 h TSB007", "setting": "[3]; 48 h", "result": 10, "unit": "trim"}, {"measurement": "Zone diameters, Repeat Results", "setting": "[3]; repeat", "result": 8, "unit": "trim"}, {"measurement": "Zone diameters, 24 h TSB007", "setting": "[4]; 10 mg/ml, 20 μl, 24 h", "result": 18, "unit": "trim"}, {"measurement": "Zone diameters, 48 h TSB007", "setting": "[4]; 10 mg/ml, 20 μl, 48 h", "result": 9, "unit": "trim"}, {"measurement": "Zone diameters, Repeat Results", "setting": "[4]; 10 mg/ml, 20 μl, repeat", "result": 23, "unit": "trim"}, {"measurement": "zone of inhibition at 10000 µg/mL", "setting": "[4]; NCTC10442, 24 h, read-out: Zone diameters, 24 h AnO2", "result": 17, "unit": "mm"}, {"measurement": "zone of inhibition at 10000 µg/mL", "setting": "[4]; NCTC10442, 24 h, read-out: Zone diameters, 24 h O2", "result": 14, "unit": "mm"}, {"measurement": "zone of inhibition at 10000 µg/mL", "setting": "[4]; NCTC10442, 48 h, read-out: Zone diameters, 48 h AnO2", "result": 17, "unit": "mm"}, {"measurement": "zone of inhibition at 10000 µg/mL", "setting": "[4]; NCTC10442, 48 h, read-out: Zone diameters, 48 h O2", "result": 11, "unit": "mm"}, {"measurement": "Ames Test result", "setting": "[5]; 100, 300 and 1000 μg/plate, TA98, TA100, TA1535, no metabolic activation", "result": "negative"}, {"measurement": "Number of colonies", "setting": "[5]; TA98, 100 μg/plate, negative control 14, 12", "result": "16 and 13"}, {"measurement": "Number of colonies", "setting": "[5]; TA98, 300 μg/plate, negative control 14, 12", "result": 11}, {"measurement": "Number of colonies", "setting": "[5]; TA98, 1000 μg/plate, negative control 14, 12", "result": "3 and 2"}, {"measurement": "Number of colonies", "setting": "[5]; TA100, 100 μg/plate, negative control 113, 96", "result": "111 and 92"}, {"measurement": "Number of colonies", "setting": "[5]; TA100, 300 μg/plate, negative control 113, 96", "result": "110 and 105"}, {"measurement": "Number of colonies", "setting": "[5]; TA100, 1000 μg/plate, negative control 113, 96", "result": "88 and 89"}, {"measurement": "Number of colonies", "setting": "[5]; TA1535, 100 μg/plate, negative control 28, 29", "result": "17 and 29"}, {"measurement": "Number of colonies", "setting": "[5]; TA1535, 300 μg/plate, negative control 28, 29", "result": "16 and 24"}, {"measurement": "Number of colonies", "setting": "[5]; TA1535, 1000 μg/plate, negative control 28, 29", "result": 0}, {"measurement": "Zone diameters, 24 h TSB007", "setting": "[6]; 10 mg/ml, 20 μl, 24 h", "result": 20, "unit": "trim"}, {"measurement": "Zone diameters, 48 h TSB007", "setting": "[6]; 10 mg/ml, 20 μl, 48 h", "result": 9, "unit": "trim"}, {"measurement": "Zone diameters, 48 h O2", "setting": "[6]; 10 mg/ml, 20 μl, 48 h, incubated aerobically", "result": "No zone"}, {"measurement": "Zone diameters, Repeat Results", "setting": "[6]; 10 mg/ml, 20 μl, repeat", "result": 21, "unit": "trim"}, {"measurement": "zone of inhibition at 10000 µg/mL", "setting": "[6]; ATCC9144|NCTC6571, 24 h, read-out: Zone diameters, 24 h AnO2", "result": 18, "unit": "mm"}, {"measurement": "zone of inhibition at 10000 µg/mL", "setting": "[6]; ATCC9144|NCTC6571, 24 h, read-out: Zone diameters, 24 h O2", "result": 14, "unit": "mm"}, {"measurement": "zone of inhibition at 10000 µg/mL", "setting": "[6]; ATCC9144|NCTC6571, 48 h, read-out: Zone diameters, 48 h AnO2", "result": 18, "unit": "mm"}, {"measurement": "Zone diameters, 24 h TSB007", "setting": "[7]; 24 h", "result": 9, "unit": "trim"}, {"measurement": "Zone diameters, 48 h TSB007", "setting": "[7]; 48 h", "result": 9, "unit": "trim"}, {"measurement": "Zone diameters, Repeat Results", "setting": "[7]; repeat, value printed with '?'", "result": "15? trim"}, {"measurement": "Zone diameters, 24 h TSB007", "setting": "[8]; 24 h", "result": 25, "unit": "trim"}, {"measurement": "Zone diameters, 48 h TSB007", "setting": "[8]; 48 h", "result": 25, "unit": "trim"}, {"measurement": "MIC", "setting": "[9]", "result": 4, "unit": "µg/mL"}, {"measurement": "Zone diameters, 24 h TSB007", "setting": "[10]; 24 h", "result": 8, "unit": "trim"}, {"measurement": "Zone diameters, 48 h TSB007", "setting": "[10]; 48 h", "result": 8, "unit": "trim"}, {"measurement": "Zone diameters, 24 h TSB007", "setting": "[11]; 10 mg/ml, 20 μl, 24 h", "result": 22, "unit": "trim"}, {"measurement": "Zone diameters, 48 h TSB007", "setting": "[11]; 10 mg/ml, 20 μl, 48 h", "result": 22, "unit": "trim"}, {"measurement": "Zone diameters, Repeat Results", "setting": "[11]; 10 mg/ml, 20 μl, repeat", "result": 20, "unit": "trim"}, {"measurement": "zone of inhibition at 10000 µg/mL", "setting": "[11]; ATCC12228, 24 h, read-out: Zone diameters, 24 h AnO2", "result": 22, "unit": "mm"}, {"measurement": "zone of inhibition at 10000 µg/mL", "setting": "[11]; ATCC12228, 24 h, read-out: Zone diameters, 24 h O2", "result": 18, "unit": "mm"}, {"measurement": "zone of inhibition at 10000 µg/mL", "setting": "[11]; ATCC12228, 48 h, read-out: Zone diameters, 48 h AnO2", "result": 22, "unit": "mm"}, {"measurement": "zone of inhibition at 10000 µg/mL", "setting": "[11]; ATCC12228, 48 h, read-out: Zone diameters, 48 h O2", "result": 18, "unit": "mm"}, {"measurement": "Zone diameters, Repeat Results", "setting": "[12]", "result": "9? trim"}, {"measurement": "Zone diameters, 24 h TSB007", "setting": "[13]; 24 h", "result": 16, "unit": "trim"}, {"measurement": "Zone diameters, 48 h TSB007", "setting": "[13]; 48 h", "result": 16, "unit": "trim"}]}
